Assays:
[1] = rat, microsomes, 2 µM
[2] = human, microsomes, 2 µM
physchem [3] = conditions: octanol/water, pH 7.4
physchem [4] = test: physchem
Rattus norvegicus [5] = species: Rattus norvegicus; test: animal or person; conditions: Wistar, ip, read-out: INH
[6] = molecular target: Histamine H2 receptor (Homo sapiens) (UniProt P25021); conditions: CHO, 3 uM
in vivo [7] = conditions: Sprague-Dawley, rat, brain/plasma, ip, 30 mg/kg
hERG (KCNH2) = hERG (KCNH2) (Homo sapiens, UniProt Q12809); test: in vitro; conditions: CHO cells expressing human ERG
Chain of hERG (KCNH2) (Q12809 whole entry): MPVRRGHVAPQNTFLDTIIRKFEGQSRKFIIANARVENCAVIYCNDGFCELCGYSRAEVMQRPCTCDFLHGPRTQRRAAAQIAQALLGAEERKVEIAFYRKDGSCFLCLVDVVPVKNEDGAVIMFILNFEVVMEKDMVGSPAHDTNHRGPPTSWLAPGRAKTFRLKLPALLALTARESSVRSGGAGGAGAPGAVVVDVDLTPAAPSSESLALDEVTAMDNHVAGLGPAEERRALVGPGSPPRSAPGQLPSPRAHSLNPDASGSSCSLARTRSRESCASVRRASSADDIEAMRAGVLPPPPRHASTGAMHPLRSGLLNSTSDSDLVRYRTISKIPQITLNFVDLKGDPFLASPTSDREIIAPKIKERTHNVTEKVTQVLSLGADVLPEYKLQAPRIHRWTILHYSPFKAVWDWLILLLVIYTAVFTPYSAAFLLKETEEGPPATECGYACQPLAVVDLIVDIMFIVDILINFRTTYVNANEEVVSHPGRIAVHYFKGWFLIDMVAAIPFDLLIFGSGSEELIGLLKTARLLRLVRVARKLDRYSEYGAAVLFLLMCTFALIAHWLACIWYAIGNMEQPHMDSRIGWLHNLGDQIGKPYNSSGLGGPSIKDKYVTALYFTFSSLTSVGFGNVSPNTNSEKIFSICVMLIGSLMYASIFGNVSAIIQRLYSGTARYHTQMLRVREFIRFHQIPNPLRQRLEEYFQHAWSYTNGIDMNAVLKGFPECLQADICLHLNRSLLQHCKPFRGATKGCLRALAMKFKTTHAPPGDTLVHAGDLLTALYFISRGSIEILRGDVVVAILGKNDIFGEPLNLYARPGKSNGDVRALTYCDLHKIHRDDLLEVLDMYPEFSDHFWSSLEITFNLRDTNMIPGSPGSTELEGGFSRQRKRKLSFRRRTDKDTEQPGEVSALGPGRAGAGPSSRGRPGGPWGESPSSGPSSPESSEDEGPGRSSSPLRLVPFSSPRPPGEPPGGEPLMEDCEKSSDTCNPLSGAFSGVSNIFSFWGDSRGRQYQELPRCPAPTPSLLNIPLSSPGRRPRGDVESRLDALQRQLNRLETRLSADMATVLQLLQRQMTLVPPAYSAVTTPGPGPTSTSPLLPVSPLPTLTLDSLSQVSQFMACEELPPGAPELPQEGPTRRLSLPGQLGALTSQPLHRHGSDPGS

in vivo [8] = conditions: Wistar, rat
in vivo [9] = conditions: Sprague-Dawley, rat, brain, ip, 30 mg/kg
[10] = molecular target: Histamine H3 receptor (Homo sapiens) (UniProt Q9Y5N1); conditions: CHO, 3 uM
Chain of Histamine H3 receptor (Homo sapiens) (Q9Y5N1 whole entry): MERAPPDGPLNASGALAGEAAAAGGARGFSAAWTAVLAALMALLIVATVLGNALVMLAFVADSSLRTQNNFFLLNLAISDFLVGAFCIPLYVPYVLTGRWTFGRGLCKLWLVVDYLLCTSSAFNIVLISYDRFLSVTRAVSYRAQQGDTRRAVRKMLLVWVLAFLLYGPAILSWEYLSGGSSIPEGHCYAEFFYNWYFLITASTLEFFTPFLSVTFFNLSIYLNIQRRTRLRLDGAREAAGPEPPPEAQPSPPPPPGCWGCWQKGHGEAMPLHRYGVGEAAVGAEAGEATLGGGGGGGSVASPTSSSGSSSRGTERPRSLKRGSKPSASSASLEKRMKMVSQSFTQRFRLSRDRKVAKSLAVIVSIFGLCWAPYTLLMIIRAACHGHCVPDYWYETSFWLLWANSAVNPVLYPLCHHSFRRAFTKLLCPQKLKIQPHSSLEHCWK

Rattus norvegicus [11] = species: Rattus norvegicus; test: animal or person; conditions: Wistar, po, read-out: INH
Rattus norvegicus [12] = species: Rattus norvegicus; test: animal or person; conditions: Wistar, ip, read-out: INH; remark: listed apart in the source
in vivo [13] = conditions: Sprague-Dawley, rat, brain, po, 10 mg/kg
Rattus norvegicus [14] = species: Rattus norvegicus; test: animal or person; conditions: Wistar, ip, read-out: INH; remark: listed apart in the source
in vivo [15] = conditions: Wistar, rat; remark: listed apart in the source
physchem [16] = test: physchem; remark: listed apart in the source
in vivo [17] = conditions: Wistar, rat; remark: listed apart in the source
Rattus norvegicus [18] = species: Rattus norvegicus; test: animal or person; conditions: Wistar, ip, read-out: INH; remark: listed apart in the source
Rattus norvegicus [19] = species: Rattus norvegicus; test: animal or person; conditions: Wistar, po, read-out: INH; remark: listed apart in the source
in vivo [20] = conditions: Sprague-Dawley, rat, brain, ip, 10 mg/kg
[21] = molecular target: Histamine H4 receptor (Homo sapiens) (UniProt Q9H3N8); conditions: CHO, 3 uM
[22] = molecular target: Histamine H1 receptor (Homo sapiens) (UniProt P35367); conditions: CHO, 3 uM
Chain of Histamine H1 receptor (Homo sapiens) (P35367 whole entry): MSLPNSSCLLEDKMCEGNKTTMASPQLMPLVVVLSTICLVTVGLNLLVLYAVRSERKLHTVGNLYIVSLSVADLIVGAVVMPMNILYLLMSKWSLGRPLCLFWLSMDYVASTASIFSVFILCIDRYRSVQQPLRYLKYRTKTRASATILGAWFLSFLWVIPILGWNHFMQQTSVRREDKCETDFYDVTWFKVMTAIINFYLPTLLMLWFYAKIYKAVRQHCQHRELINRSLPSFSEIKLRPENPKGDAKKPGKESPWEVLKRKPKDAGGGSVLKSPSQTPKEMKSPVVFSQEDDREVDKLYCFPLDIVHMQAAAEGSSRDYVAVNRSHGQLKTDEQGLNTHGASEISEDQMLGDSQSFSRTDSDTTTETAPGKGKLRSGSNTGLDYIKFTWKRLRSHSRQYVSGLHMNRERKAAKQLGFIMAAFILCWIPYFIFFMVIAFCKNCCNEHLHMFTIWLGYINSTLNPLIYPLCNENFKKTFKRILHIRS

Chain of Histamine H2 receptor (Homo sapiens) (P25021 whole entry): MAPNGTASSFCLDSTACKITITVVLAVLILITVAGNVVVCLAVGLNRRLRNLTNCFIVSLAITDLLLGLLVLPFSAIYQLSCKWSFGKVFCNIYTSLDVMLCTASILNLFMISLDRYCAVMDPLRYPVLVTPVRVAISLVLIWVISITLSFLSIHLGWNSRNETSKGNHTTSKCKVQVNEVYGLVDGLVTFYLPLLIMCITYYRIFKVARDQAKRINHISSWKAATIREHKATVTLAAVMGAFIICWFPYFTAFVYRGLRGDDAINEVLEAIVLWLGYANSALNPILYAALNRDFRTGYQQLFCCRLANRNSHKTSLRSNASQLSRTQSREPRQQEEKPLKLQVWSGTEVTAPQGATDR

Row | Compound | clearance [1] [µL/min/mg] | clearance [2] [µL/min/mg] | logD (physchem [3]) | pKa (physchem [4]) | further results
1 | CC(C)(C)N1CCC(Oc2ccc3[nH]c(C(=O)N4CCOCC4)cc3c2)CC1 | 13 | 10 | 0.03 | 10 | 
2 | COC1CCN(C(=O)c2cc3cc(OC4CCN(C(C)C)CC4)ccc3[nH]2)CC1 | 20 | 5 | 0.59 | 9.9 | inhibition in vivo at 30 mg/kg (Rattus norvegicus [5]): 70%
3 | CCN(c1ccc2[nH]c(C(=O)N3CCOCC3)cc2c1)C1CCN(C(C)C)CC1 |  |  |  |  | inhibition [10]: 19%
4 | CC(C)N1CCC(Oc2ccc3c(c2)cc(C(=O)N2CCOCC2)n3CC(F)(F)F)CC1 | 13 | < 1 | 1.1 | 9.7 | inhibition in vivo at 10 mg/kg (Rattus norvegicus [11]): 87%; inhibition in vivo at 10 mg/kg (Rattus norvegicus [12]): 87%
5 | Cc1[nH]c2ccc(OC3CCN(C(C)C)CC3)cc2c1C(=O)N1CCOCC1 | 15 | < 1 | -0.12 | 9.8 | 
6 | O=C(c1cc2cc(OC3CCN(C4CC4)CC3)ccc2n1CC(F)(F)F)N1CCOCC1 | 143 | 11 | 2.79 | 7.5 | 
7 | CC(C)N1CCC(Oc2ccc3c(c2)cc(C(=O)N2CCC(F)(F)CC2)n3CC#N)CC1 | 16 | < 1 | 1.13 | 9.8 | 
8 | CC(C)N1CCC(Oc2ccc3[nH]c(C(=O)N4CCC(F)(F)CC4)cc3c2)CC1 | 9 | 5 | 1.2 | 9.7 | concentration at 2 h (in vivo [13]): 1690 ng/g; inhibition in vivo at 1 mg/kg (Rattus norvegicus [14]): 58%; inhibition at 10 µM (hERG (KCNH2)): 73%; half-life (in vivo [8]): 4 h; bioavailability (in vivo [15]): 100%; solubility (physchem [16]): > 540 µg/mL
9 | CC(C)N1CCC(Oc2ccc3c(c2)cc(C(=O)N2CCC(F)(F)CC2)n3C(C)C)CC1 | 12 | 4 | 1.67 | 9.9 | concentration at 2 h (in vivo [13]): 1270 ng/g; Vd (in vivo [17]): 9.2 L/kg; inhibition at 10 µM (hERG (KCNH2)): 42%; half-life (in vivo [8]): 11 h; inhibition in vivo at 3 mg/kg (Rattus norvegicus [18]): 80%
10 | CC(C)N1CCC(Oc2ccc3c(c2)cc(C(=O)N2CCS(=O)(=O)CC2)n3CC(F)(F)F)CC1 | 4 | 1 | 0.35 | 9.6 | 
11 | O=C(c1ccc2c(c1)cc(C(=O)N1CCOCC1)n2CC(F)(F)F)N1CCN(C2CCC2)CC1 | 16 | 10 | 1.97 | 6.8 | Kp (in vivo [7]): 0.3; inhibition in vivo at 10 mg/kg (Rattus norvegicus [11]): 93%; Vd (in vivo [17]): 1.5 L/kg; inhibition at 10 µM (hERG (KCNH2)): 33%
12 | CC(C)N1CCC(Oc2cc3[nH]c(C(=O)N4CCOCC4)cc3cc2F)CC1 | 18 | 6 |  | 9.5 | 
13 | CC(C)N1CCC(Nc2ccc3[nH]c(C(=O)N4CCOCC4)cc3c2)CC1 | 9 | 5 | -0.7 | 9.9 | inhibition in vivo at 30 mg/kg (Rattus norvegicus [5]): 99%
14 | CC(C)N1CCC(Oc2ccc3c(c2)cc(C(=O)N2CCC(F)(F)CC2)n3S(C)(=O)=O)CC1 | 10 | < 1 | 1.31 | 9.6 | Vd (in vivo [17]): 9.2 L/kg; inhibition in vivo at 3 mg/kg (Rattus norvegicus [19]): 81%; inhibition at 10 µM (hERG (KCNH2)): 64%; half-life (in vivo [8]): 6 h
15 | CC(C)N1CCC(Oc2ccc3[nH]c(C(=O)N4CCC(O)C4)cc3c2)CC1 (stereo not drawn) | 5 | 12 | -0.15 | 9.8 | inhibition in vivo at 30 mg/kg (Rattus norvegicus [5]): 83%
16 | CC(C)N1CCC(Oc2ccc3[nH]c(C(=O)N4CCCCCC4)cc3c2)CC1 | 55 | 10 | 1.75 | 9.7 | inhibition in vivo at 10 mg/kg (Rattus norvegicus [12]): 76%
17 | O=C(c1cc2cc(OC3CCN(C4CCC4)CC3)ccc2n1CC(F)(F)F)N1CCOCC1 | 28 | 4 | 2.09 | 9.1 | 
18 | CCOC(=O)c1cc2cc(C(=O)O)ccc2[nH]1 | 15 | < 1 | 0.04 |  | 
19 | CC(C)N1CCC(Oc2ccc3c(c2)cc(C(=O)N2CCC(F)(F)CC2)n3S(=O)(=O)c2ccc(F)cc2)CC1 | 20 | < 1 | 3.04 |  | inhibition [6]: > 30%

Second part, led by results:

Row | clearance [1] [µL/min/mg] | clearance [2] [µL/min/mg] | logD (physchem [3]) | pKa (physchem [4]) | Compound | further results
20 | 104 | < 1 | 3.38 |  | CC(C)N1CCC(Oc2ccc3c(c2)cc(C(=O)N2CCC(F)(F)CC2)n3-c2ccc(Cl)c(Cl)c2)CC1 | inhibition [6]: > 30%
21 | 12 | < 1 | 0.09 | 10 | CC(C)N1CCC(Oc2ccc3[nH]c(C(=O)N4CCOCC4)cc3c2)CC1 | Kp (in vivo [7]): 0.3; inhibition in vivo at 30 mg/kg (Rattus norvegicus [5]): 91%; inhibition at 10 µM (hERG (KCNH2)): 28%; half-life (in vivo [8]): 1 h; concentration at 2 h (in vivo [9]): 2230 ng/g
22 | 228 | 8 | 1.83 | 6.4 | O=C(c1cc2cc(OC3CCN(C4COC4)CC3)ccc2n1CC(F)(F)F)N1CCOCC1 | 
23 | 8 | < 1 | 0.31 | 9.7 | CC(C)N1CCC(Oc2ccc3cc(C(=O)N4CCOCC4)[nH]c3c2)CC1 | inhibition in vivo at 10 mg/kg (Rattus norvegicus [12]): 60%
24 |  | < 1 |  |  | CC(=O)n1c(C(=O)N2CCC(F)(F)CC2)cc2cc(OC3CCN(C(C)C)CC3)ccc21 | 
25 | 17 | < 1 | 1.23 | 10 | CC(C)N1CCC(Oc2ccc3[nH]c(C(=O)N4CCCC(F)(F)C4)cc3c2)CC1 | inhibition in vivo at 10 mg/kg (Rattus norvegicus [12]): 86%
26 | 8 | 2 | 2.08 | 9.7 | CC(C)N1CCC(Oc2ccc3c(c2)cc(C(=O)N2CCC(F)(F)CC2)n3CC(F)(F)F)CC1 | concentration at 2 h (in vivo [20]): 435 ng/g; half-life (in vivo [8]): 1.8 h; inhibition in vivo at 3 mg/kg (Rattus norvegicus [18]): 49%
27 | 6 | < 1 | 0.32 | 10 | O=C(c1cc2cc(OCCCN3CCCCC3)ccc2[nH]1)N1CCOCC1 | inhibition in vivo at 10 mg/kg (Rattus norvegicus [12]): 66%; inhibition [21]: 4%; inhibition [22]: 6%; inhibition [6]: 3%
28 | 347 | 5 | 1.95 | 7.7 | O=C(c1cc2cc(OC3CCN(C4CC4)CC3)ccc2[nH]1)N1CCOCC1 | 
